# Patent US20180155386A1, “PROGESTERONE ANTAGONISTS” (Evestra, Inc., priority 2011, published 2018)
# What was measured:
# glucocorticoid receptor = molecular target: T1, glucocorticoid receptor (Homo sapiens, UniProt P04150); conditions: background statement in words; cited from earlier work
# T1 sequence (P04150 1-777): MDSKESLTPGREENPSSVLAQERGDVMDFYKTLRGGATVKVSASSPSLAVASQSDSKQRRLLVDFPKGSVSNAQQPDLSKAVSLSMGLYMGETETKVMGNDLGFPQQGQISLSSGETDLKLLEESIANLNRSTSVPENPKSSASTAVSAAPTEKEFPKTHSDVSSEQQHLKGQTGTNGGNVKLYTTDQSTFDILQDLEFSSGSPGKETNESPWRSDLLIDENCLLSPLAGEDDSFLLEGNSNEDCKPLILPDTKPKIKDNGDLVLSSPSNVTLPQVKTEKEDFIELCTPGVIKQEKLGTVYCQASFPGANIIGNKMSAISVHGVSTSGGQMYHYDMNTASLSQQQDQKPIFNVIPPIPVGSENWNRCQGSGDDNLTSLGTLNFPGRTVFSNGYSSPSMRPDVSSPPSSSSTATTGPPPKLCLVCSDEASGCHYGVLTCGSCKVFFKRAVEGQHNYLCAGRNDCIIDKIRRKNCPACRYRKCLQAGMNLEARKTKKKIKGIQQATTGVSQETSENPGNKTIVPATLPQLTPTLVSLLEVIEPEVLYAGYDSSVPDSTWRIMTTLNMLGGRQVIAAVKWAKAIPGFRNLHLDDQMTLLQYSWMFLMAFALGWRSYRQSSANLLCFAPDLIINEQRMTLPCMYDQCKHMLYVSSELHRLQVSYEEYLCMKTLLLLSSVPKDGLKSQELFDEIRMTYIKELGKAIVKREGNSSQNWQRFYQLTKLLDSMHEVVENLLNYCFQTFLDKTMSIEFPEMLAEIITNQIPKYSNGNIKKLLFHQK
# progesterone receptor = molecular target: T2, progesterone receptor (Homo sapiens, UniProt P06401); conditions: background statement in words; cited from earlier work
# T2 sequence (P06401 1-933): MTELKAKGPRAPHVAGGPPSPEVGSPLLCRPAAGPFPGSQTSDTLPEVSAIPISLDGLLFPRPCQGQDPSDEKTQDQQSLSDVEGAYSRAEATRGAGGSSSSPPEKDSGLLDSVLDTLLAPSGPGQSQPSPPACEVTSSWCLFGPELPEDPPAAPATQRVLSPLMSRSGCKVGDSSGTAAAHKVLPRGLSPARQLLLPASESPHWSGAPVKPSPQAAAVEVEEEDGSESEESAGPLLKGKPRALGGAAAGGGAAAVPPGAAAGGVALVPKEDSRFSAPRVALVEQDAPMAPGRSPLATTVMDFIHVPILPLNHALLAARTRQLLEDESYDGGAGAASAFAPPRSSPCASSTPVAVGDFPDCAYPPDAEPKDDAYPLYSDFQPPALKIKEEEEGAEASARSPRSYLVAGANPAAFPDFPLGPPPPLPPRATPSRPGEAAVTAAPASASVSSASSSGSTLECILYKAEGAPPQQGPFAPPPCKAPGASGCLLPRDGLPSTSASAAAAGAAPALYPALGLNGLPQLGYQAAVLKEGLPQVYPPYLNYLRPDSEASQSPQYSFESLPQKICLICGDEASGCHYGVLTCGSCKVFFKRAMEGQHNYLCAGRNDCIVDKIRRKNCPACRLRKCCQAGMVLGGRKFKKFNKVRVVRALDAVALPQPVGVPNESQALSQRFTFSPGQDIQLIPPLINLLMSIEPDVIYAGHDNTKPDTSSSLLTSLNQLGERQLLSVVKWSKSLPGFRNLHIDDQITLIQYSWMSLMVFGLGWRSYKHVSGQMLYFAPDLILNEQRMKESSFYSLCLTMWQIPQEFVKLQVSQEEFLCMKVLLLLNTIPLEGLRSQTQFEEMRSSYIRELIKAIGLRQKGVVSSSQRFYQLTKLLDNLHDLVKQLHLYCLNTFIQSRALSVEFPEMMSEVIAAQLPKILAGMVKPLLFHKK
# [1] = test system: uterine weight of non-pregnant guinea pigs; test: Uterine weights of guinea pigs; type: in vivo; conditions: 10 mg s.c. from day 10 of cycle; sacrifice day 18; untreated guinea pig 1.2 g; higher than 1.2 g indicates pure progesterone antagonistic activity
# Description: 3 Non-pregnant guinea pigs in the luteal phase of the cycle will be treated with 10 mg of the compound subcutaneously beginning on day 10 of the cycle. Animals were sacrificed on day 18 after the start of the treatment and the uterine weights were obtained at the time of sacrifice. Comparisons will be made to onapristone-treated animals at 10 mg/animal/day s.c
# [2] = test system: human breast cancer cell line T47D; test: In vitro antiproliferative activity in human breast cancer cell line T47D (MTT); type: cell-based; conditions: 168 h, T47D cells, 7 days after cell seeding
# Description: Cells from frozen stock were expanded in T75 cell culture flasks. For the experiment, cells in the logarithmic growth phase (70% confluent) were cultivated for 3 day without estradiol and then washed with PBS, detached by trypsination and suspended in 5 ml of fresh RPMI-1640 medium. Cells were centrifuged for 5 min at 1000 rpm and the pellet was resuspended in RPMI-1640 medium.
# Cells were seeded in 96-well plates with a density of 5000 cells/well/in 0.18 mL RPMI-1640 medium. Cells were allowed to attach for 24 h. Visual control for viability at 24 h and cell culture medium change. At this time point, compounds were added in 20 μl to the final concentration. After 3 days medium and compounds where changed again. Finally, 7 days after cell seeding, 20 μl MTT-solution was added to each well and 4 h later the formed tetrazolium salt was measured with a photometer.
# [3] = molecular target: T3, progesterone receptor-LBD-UAS-bla HEK 293T cells (Homo sapiens, UniProt P06401); test: Progesterone Antagonist Screen (GeneBLAzer Beta-lactamase reporter, activated by control agonist R5020); type: cell-based; conditions: values relative to RU486, which is 100%; HEK 293T reporter cells, agonist R5020 at EC80
# T3 construct: host or cells: HEK 293T
# T3 sequence (P06401 679-913 limits assumed): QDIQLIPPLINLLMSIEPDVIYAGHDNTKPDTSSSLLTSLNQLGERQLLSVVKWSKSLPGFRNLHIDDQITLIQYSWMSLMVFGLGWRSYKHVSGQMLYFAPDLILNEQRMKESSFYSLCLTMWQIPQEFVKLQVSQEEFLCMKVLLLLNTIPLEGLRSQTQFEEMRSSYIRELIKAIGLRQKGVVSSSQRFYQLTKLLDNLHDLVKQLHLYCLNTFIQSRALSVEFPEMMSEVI
# Description: Determination of the agonist/antagonist nature of the test compounds was carried out using Invitrogen's SelectScreen™ Cell-based nuclear receptor profiling service which uses the GeneBLAzer® Beta-lactamase reporter technology. Basically this assay uses a Beta-lactamase cDNA under transcriptional control of an Upstream Activator Sequence (UAS). The UAS is activated by the GAL4 transcription factor DNA binding domain (DBD), which is expressed as a fusion protein with the target receptor ligand binding domain (LBD). Upon ligand binding, the GAL4(DBD)-NR(LDB) binds to the UAS, which controls transcription of Beta-lactamase. Beta-lactamase cleaves a special engineered fluorescent substrate which results in a change in the measured fluorescence wavelength.
# The generalized protocol used for the Progesterone Antagonist Screen, activated by control Agonist R5020 is as follows:
# The progesterone receptor-LBD-UAS-bla HEK 293T cells are thawed and prepared as described above for the Agonist screen. 4 μL of a 10× serial dilution of control antagonist RU-486 (starting concentration, 100 nM) or test compounds are added to appropriate wells of a TC-Treated assay plate. 32 μL of cell suspension is added to the wells which is then pre-incubated at 37° C./5% CO2 in a humidified incubator with test compounds and control antagonist titration for 30 minutes. 4 μL of a 10× control agonist (see above) at the predetermined EC80 concentration is added to wells containing the control antagonist or test compounds. The plate is incubated for 16-24 hours at 37° C./5% CO2 in a humidified incubator. 8 μL of 1 μM Substrate Loading Solution is added to each well and the plate is incubated for 2 hours at room temperature. The plate is then read on a fluorescence plate reader (Tecan Safire).
Emax [3],SMILES,antiglucocorticoid effects / glucocorticoid receptor antagonism (glucocorticoid receptor),antiprogestagenic activity / progesterone antagonism (progesterone receptor),Uterine Weights of Guinea Pigs Treated with antiprogestins (grams) [1],IC50 [2]
–,"CC#C[C@]1(O)CC[C@H]2[C@@H]3CCC4=CC(=O)CCC4=C3[C@@H](c3ccc(N(C)C)cc3)C[C@@]21C [RU 486, Mifepristone]",overt glucocorticoid receptor antagonism,potent progesterone antagonist,1.81 grams,–
81%,"CC(=O)c1ccc([C@H]2C[C@@]3(C)[C@@H](CC[C@@]3(O)C(F)(F)C(F)(F)F)[C@@H]3CCC4=CC(=O)CCC4=C32)cc1 [ZK 230211, Lonaprisan, reference compound]",only marginal antiglucocorticoid effects,high antiprogestagenic activity,–,0.3 nM
